Activity calls are given as the source filed them.
Experiments:
[1] = target: FAD-linked sulfhydryl oxidase ALR (Homo sapiens, UniProt P55789); experiment: inhibitors of human ALR sulfhydryl oxidase, dose response, biochemical, H2O2 detection, luminescence, cherry-pick (AID 493248)
[2] = target: Genome polyprotein (dengue virus type 2, UniProt P29990); experiment: Dengue-2 NS5 methyltransferase inhibitors, primary screen, biochemical, confirmation dose response (AID 588689); assay type: functional
Chain of Genome polyprotein (P29990 2492-3391 limits assumed): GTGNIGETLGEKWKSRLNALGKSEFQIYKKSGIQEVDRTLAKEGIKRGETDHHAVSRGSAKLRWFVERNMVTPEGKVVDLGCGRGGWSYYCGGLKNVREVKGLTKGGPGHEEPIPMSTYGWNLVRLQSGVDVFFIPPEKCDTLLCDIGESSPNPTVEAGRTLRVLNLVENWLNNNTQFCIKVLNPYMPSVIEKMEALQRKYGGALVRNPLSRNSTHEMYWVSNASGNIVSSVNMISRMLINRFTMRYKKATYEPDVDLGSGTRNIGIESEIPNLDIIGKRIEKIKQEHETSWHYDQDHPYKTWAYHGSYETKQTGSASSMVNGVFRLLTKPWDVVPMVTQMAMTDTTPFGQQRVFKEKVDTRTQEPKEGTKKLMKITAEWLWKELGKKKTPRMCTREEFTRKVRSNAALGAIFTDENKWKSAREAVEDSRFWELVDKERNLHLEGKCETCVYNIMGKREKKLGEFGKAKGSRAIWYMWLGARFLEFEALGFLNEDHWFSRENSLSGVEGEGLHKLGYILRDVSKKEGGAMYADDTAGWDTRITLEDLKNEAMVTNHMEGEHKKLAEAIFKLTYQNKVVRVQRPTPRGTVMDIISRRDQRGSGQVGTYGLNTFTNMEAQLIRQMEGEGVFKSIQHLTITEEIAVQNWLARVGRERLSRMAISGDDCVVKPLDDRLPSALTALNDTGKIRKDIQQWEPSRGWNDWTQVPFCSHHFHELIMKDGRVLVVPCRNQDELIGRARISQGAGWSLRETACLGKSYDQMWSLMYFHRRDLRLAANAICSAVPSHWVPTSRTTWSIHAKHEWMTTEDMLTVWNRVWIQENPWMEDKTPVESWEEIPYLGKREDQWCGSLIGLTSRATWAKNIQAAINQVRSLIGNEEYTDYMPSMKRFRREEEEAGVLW

[3] = HEp-2 cell cytotoxicity, dose response, cytotoxicity control for RSV inhibitor project, HTS (AID 2410); assay type: functional; conditions: human respiratory syncytial virus
[4] = target: T1, SUMO-activating enzyme (Homo sapiens, UniProt Q9UBT2); experiment: SUMOylation inhibitor hit validation, confirmation, SUMOylation inhibitor project, biochemical, AlphaScreen (AID 2018); assay type: functional
T1 sequence (Q9UBE0 whole entry): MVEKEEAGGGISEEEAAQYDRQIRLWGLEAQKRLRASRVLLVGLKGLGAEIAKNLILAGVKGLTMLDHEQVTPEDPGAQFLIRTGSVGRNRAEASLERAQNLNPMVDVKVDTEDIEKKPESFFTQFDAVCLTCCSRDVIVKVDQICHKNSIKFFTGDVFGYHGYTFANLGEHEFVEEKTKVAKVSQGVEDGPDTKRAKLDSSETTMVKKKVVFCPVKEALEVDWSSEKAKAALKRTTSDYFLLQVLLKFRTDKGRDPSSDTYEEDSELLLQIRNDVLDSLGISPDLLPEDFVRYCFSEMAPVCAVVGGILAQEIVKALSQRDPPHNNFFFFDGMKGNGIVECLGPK
T1 sequence (Q9UBT2 whole entry): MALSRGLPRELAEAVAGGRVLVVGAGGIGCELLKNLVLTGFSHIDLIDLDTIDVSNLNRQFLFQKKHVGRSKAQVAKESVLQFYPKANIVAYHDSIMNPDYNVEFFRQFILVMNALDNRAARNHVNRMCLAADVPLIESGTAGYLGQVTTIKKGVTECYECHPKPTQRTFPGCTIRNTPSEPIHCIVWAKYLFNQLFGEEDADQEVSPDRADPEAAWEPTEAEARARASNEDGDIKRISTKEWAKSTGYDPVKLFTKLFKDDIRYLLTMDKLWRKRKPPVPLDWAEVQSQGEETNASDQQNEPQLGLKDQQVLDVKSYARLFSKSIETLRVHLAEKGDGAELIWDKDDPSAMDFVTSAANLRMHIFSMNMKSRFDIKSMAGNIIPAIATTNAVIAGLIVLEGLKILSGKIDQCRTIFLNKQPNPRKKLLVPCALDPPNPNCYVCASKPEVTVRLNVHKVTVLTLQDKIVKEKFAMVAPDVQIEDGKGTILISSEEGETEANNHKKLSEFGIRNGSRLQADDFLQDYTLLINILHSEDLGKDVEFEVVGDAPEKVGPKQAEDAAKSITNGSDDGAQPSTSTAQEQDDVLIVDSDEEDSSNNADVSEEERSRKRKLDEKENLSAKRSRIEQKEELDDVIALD

[5] = target: T1, SUMO-activating enzyme; experiment: inhibitors of in vitro SUMOylation cascade, primary screen, biochemical, HTRF, uHTS (AID 2006); assay type: protein-complex assay
[6] = target: Beta-galactosidase (Escherichia coli, UniProt Q8VNN2); experiment: PubChem AID 485352; assay type: functional
Chain of Beta-galactosidase (Q8VNN2 whole entry): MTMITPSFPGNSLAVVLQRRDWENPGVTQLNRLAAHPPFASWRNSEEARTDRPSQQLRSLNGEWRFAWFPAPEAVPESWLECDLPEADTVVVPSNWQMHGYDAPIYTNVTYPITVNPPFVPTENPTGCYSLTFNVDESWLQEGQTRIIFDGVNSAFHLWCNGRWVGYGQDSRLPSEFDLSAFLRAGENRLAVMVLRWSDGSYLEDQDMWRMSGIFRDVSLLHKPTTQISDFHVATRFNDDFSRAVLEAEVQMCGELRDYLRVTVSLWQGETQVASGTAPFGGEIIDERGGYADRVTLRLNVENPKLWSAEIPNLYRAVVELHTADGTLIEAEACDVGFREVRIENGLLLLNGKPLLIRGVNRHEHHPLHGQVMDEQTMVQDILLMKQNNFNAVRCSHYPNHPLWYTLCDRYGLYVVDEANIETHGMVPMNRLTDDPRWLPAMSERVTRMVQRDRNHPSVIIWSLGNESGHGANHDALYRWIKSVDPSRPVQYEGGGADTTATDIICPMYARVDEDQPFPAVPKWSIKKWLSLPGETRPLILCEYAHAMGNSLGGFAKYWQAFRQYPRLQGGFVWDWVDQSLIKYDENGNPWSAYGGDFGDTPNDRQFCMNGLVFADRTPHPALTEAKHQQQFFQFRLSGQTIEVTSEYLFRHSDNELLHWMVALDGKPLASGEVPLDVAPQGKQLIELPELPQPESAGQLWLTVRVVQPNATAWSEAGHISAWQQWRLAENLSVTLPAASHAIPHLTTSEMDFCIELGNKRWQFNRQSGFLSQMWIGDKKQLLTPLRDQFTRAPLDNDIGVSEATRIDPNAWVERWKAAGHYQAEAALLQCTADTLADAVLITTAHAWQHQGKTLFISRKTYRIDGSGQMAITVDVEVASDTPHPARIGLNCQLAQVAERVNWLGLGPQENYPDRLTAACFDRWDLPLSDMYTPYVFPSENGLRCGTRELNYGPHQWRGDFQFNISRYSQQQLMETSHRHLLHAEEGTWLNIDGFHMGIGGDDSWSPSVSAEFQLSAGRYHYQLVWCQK

[7] = target: T2, Type-1 angiotensin II receptor (Homo sapiens, UniProt P30556); experiment: AT1 receptor antagonists, dose response, selectivity assay for APJ receptor antagonist project, cell-based, uHTS hits (AID 463214); assay type: functional;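 also: antagonist potency against angiotensin II stimulated AT1 response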
T2 sequence (P30556 whole entry): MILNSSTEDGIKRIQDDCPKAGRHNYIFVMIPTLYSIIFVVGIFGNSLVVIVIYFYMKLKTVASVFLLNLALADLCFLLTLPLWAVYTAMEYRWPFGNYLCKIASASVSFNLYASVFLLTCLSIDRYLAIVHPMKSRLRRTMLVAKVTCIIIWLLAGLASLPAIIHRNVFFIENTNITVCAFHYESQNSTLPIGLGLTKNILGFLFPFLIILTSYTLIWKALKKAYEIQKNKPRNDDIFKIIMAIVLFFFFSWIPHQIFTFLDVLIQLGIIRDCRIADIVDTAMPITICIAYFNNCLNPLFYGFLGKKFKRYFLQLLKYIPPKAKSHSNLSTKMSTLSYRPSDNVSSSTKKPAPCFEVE

[8] = target: T3, Aminopeptidase N (Plasmodium falciparum FcB1/Columbia, UniProt O96935); experiment: P. falciparum M1AAP inhibitors, biochemical, fluorogenic H-Leu-NHMec substrate, 1536-well (AID 1445); parameters: species or system Plasmodium falciparum 3D7, 3D7
T3 sequence (O96935 whole entry): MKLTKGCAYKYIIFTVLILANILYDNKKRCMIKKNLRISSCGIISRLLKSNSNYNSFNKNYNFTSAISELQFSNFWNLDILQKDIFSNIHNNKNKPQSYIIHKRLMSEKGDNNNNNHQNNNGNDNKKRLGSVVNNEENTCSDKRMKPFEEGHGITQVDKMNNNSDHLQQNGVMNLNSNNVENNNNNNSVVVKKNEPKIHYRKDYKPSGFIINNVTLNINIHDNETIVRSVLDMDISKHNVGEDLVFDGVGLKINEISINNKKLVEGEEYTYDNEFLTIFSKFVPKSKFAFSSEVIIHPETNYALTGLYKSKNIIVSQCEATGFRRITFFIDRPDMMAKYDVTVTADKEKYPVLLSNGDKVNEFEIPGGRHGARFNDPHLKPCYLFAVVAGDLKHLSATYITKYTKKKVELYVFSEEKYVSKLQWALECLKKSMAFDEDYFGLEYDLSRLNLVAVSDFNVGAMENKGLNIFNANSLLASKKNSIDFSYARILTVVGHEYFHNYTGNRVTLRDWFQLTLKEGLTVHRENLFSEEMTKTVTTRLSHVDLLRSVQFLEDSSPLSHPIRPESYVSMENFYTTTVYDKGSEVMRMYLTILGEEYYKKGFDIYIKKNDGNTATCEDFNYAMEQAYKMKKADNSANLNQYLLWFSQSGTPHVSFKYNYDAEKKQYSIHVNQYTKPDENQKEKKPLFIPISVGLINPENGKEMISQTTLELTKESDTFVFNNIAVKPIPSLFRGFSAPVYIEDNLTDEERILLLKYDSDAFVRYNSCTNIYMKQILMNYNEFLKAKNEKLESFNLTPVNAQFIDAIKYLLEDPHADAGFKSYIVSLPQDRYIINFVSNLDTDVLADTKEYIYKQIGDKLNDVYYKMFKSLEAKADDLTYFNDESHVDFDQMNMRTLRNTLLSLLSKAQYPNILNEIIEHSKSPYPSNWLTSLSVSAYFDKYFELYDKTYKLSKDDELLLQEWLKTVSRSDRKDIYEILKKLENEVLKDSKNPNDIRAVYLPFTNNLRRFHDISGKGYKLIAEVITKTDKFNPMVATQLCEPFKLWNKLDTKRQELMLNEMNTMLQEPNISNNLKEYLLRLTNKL

[9] = inhibitors of firefly luciferase expression or activity, dose response, H4 neuroglioma cells, luminescence (AID 1990); assay type: functional, cell-based
[10] = test system: Streptococcus sp. 'group A'; experiment: growth inhibition of control SK(-) GAS strain, dose response, counter-screen for streptokinase expression inhibitor project, luminescence, kanamycin, BacTiterGlo, confirmation (AID 1900); assay type: functional, organism-based
[11] = Luminescence Cell-Based Dose Response HTS to Identify Inhibitors of 5'UTR Stem-Loop Driven Prion Protein mRNA Translation in H4 Neuroglioblastoma Cells. [Related pubchem assays: 1827 (Project Summary), 1813 (Primary HTS)]; assay type: functional
[12] = inhibitors of SNCA 5'UTR-driven reporter translation, confirmation, H4 neuroglioma cells, luminescence (AID 1988); assay type: functional, cell-based
[13] = inhibitors of intracellular T. cruzi replication, confirmation, NIH3T3 host cells, beta-gal luminescence (AID 2044); assay type: functional, cell-based;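 also: intracellular parasites grown in NIH/3T3 mouse fibroblasts as host cells; luminescent beta-galactosidase reporter signal from transgenic T. cruzi replicating inside host cells; inhibitors lower the luminescence signal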
[14] = cytotoxicity toward NIH3T3 fibroblasts, dose response, counter-screen, cell-based, ATP luminescence, mouse fibroblasts (AID 2010); assay type: functional;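 also: cells exposed to compound for about 90 hours before reading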
[15] = test system: Streptococcus; experiment: Group A Streptococcus viability loss, dose response, counter-screen for streptokinase expression inhibitor project, luminescence, BacTiterGlo (AID 1915); assay type: functional, organism-based;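 also: potency for reduction of bacterial viability or growth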
[16] = target: T4, Calpain-2 catalytic subunit (Sus scrofa, UniProt P43367); experiment: pig calpain II inhibitor potency, dose response, biochemical, fluorogenic peptide substrate (AID 1420); assay type: functional
T4 sequence (P43367 whole entry): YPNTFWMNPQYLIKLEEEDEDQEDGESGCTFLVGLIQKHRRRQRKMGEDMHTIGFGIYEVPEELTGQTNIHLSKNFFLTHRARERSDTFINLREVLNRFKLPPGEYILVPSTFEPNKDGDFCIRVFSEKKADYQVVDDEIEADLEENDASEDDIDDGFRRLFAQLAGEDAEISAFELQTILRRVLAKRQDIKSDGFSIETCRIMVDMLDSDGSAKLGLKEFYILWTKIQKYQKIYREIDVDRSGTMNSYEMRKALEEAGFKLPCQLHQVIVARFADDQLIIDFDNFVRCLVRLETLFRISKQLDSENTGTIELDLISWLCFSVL

[17] = target: T5, Microphthalmia-associated transcription factor (Homo sapiens, UniProt O75030); experiment: TRPM1 promoter luciferase signal decrease, dose response, MITF inhibitor project, cell-based, SK-MEL-5, cherry-picked, set 3 (AID 493073); assay type: functional
T5 sequence (O75030 whole entry): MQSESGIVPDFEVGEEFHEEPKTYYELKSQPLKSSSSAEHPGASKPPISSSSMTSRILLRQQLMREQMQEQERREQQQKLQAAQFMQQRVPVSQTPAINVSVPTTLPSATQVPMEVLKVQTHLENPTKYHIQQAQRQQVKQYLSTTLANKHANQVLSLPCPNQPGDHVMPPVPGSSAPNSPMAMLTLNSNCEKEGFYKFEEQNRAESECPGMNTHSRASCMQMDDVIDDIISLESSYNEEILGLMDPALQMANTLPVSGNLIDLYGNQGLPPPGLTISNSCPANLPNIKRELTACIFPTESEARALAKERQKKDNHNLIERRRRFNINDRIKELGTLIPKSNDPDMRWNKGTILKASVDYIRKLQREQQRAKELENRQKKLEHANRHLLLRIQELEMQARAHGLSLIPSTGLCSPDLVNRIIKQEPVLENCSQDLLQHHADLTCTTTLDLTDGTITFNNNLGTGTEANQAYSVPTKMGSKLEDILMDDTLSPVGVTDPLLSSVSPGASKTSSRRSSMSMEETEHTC

[18] = target: T6, Fatty acid synthase (Homo sapiens, UniProt P49327); experiment: FAS thioesterase domain inhibitors, dose response, biochemical, endpoint fluorescence intensity, uHTS hits (AID 624327); assay type: functional;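 also: fluorescence from hydrolysis of an O-methyl fluorescein acyl ester substrate by the enzyme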
[19] = target: T6, Fatty acid synthase; experiment: FAS thioesterase domain inhibitors, dose response, biochemical, kinetic fluorescence intensity (AID 624326); assay type: functional;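 also: rate of fluorescence rise from hydrolysis of a fluorogenic O-methyl fluorescein ester substrate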
[20] = target: DNA dC->dU-editing enzyme APOBEC-3A (Homo sapiens, UniProt P31941); experiment: Dose Response confirmation of small molecule APOBEC3A DNA Deaminase Inhibitors via a fluorescence-based single-stranded DNA deaminase assay. [Related pubchem assays (depositor defined):AID493011, AID493024]; assay type: functional
Chain of DNA dC->dU-editing enzyme APOBEC-3A (P31941 whole entry): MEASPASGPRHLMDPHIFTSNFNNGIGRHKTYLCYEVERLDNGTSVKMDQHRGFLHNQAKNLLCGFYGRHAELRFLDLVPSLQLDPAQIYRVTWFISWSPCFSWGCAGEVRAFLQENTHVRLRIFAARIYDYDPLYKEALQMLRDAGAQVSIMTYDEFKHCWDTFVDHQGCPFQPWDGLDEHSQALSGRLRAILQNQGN

[21] = target: DNA dC->dU-editing enzyme APOBEC-3G (Homo sapiens, UniProt Q9HC16); assay type: functional;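 also: Dose-response counterscreen measuring inhibition of APOBEC3G DNA deaminase activity, run while confirming APOBEC3A inhibitors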
Chain of DNA dC->dU-editing enzyme APOBEC-3G (Q9HC16 whole entry, the tested form may be a part): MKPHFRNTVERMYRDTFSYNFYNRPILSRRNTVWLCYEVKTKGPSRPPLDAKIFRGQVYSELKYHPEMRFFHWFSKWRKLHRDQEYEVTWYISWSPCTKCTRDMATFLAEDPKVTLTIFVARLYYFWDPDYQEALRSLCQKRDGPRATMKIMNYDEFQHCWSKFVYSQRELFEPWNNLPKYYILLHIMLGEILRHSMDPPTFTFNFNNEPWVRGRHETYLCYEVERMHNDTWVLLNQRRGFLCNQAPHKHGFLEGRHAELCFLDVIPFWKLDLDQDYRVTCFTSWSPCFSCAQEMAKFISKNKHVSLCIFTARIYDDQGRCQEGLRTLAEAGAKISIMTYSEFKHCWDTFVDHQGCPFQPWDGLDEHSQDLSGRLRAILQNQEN

[22] = target: T7, Carboxy-terminal domain RNA polymerase II polypeptide A small phosphatase 1 (Homo sapiens, UniProt Q9GZU7); experiment: inhibitors of CTDSP1, concentration-response testing, biochemical assay, absorbance-based, actives from ultra-high-throughput screening (AID 540297); assay type: functional
T7 sequence (Q9GZU7 whole entry): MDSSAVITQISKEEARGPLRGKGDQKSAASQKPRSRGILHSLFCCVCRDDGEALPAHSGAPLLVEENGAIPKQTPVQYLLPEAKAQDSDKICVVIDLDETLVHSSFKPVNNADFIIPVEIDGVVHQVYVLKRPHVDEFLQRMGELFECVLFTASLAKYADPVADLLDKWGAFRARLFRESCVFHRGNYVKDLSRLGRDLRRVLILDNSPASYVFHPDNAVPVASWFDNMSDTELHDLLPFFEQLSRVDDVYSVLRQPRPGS

[23] = target: T8, Coagulation factor XII (Homo sapiens, UniProt P00748); assay type: functional;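 also: activated factor XIIa alpha cleaving a fluorogenic AMC peptide substrate; inhibitor potency from loss of enzyme activity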
T8 sequence (P00748 whole entry): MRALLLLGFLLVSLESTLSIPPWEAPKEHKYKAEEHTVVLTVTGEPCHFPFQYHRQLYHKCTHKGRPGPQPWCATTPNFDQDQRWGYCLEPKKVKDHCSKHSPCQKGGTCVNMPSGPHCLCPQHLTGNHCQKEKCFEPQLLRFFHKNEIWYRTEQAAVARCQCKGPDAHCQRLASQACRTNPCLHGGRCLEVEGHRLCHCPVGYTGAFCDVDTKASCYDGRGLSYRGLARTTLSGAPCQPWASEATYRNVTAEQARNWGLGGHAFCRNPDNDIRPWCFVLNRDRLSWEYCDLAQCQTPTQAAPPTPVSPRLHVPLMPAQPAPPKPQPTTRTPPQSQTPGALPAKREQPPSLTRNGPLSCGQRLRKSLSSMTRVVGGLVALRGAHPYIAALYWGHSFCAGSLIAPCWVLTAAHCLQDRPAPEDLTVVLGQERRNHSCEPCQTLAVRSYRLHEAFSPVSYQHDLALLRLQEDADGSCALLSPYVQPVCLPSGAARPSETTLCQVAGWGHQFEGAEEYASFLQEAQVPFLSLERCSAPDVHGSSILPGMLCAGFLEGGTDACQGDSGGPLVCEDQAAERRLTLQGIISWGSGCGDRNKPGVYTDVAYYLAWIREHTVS

[24] = test system: Vero; experiment: cells; assay type: functional; conditions: Chlorocebus sabaeus
[25] = cells; assay type: functional, cell-based
[26] = cells; assay type: functional, cell-based; remark: listed apart in the source
[27] = test system: INS1; experiment: beta cell apoptosis inhibitors, cytokine rescue, dose response, luminescence, retest (AID 449756); assay type: functional, cell-based; conditions: Rattus norvegicus;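 also: cell death triggered by IL-1 beta plus TNF-alpha plus IFN-gamma mixture; protective hits raise ATP signal compared with cytokine alone wells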

Chain of FAD-linked sulfhydryl oxidase ALR (P55789 whole entry): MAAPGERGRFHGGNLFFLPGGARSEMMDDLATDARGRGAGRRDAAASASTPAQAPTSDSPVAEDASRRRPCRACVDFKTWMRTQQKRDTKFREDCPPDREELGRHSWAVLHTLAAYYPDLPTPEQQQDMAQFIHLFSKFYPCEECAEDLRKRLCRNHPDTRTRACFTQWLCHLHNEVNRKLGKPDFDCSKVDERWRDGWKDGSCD

O=C(O)CN1C(=O)/C(=C\c2cccc(OCc3ccccc3)c2)SC1=S
AC50 [1]: 4.52 µM (active) | IC50 [2]: 42.2 µM (active)

O=C1NC(=O)N(Cc2ccco2)C(=O)/C1=C\c1cccn1CCOc1ccc(Cl)cc1
CC50 [3]: 24.2 µM (active) | IC50 [4]: 5.71 µM (active) | IC50 [5]: 35.7 µM (active)

COc1ccc(C(=O)NC(=S)Nc2nnn(C)n2)cc1
EC50 [6]: > 40 µM (inactive) | IC50 [7]: > 40 µM (not active)

COc1ccccc1/C=C1\SC(=S)N(C(C(=O)O)c2ccccc2)C1=O (stereo not given)
IC50 [8]: 26 µM (active) | IC50 [2]: 39.1 µM (active)

CC(C)(C)c1cc(Cl)c(O)c(NC(=S)NC(=O)c2cccnc2)c1
EC50 [9]: 16.5 µM (active) | EC50 [10]: 0.448 µM (active) | EC50 [11]: 15 µM (active) | EC50 [6]: > 40 µM (inactive) | EC50 [12]: > 120 µM (not active) | EC50 [13]: 2.56 µM (active) | IC50 [7]: 22.2 µM (not active) | EC50 [14]: 6.97 µM (active) | EC50 [15]: 6.42 µM (active)

CCOc1cc(/C=C(/C#N)c2ccc(Cl)cc2)cc(Cl)c1OCC(=O)O
IC50 [16]: 3.06 µM (not active) | AC50 [17]: 5.61 µM (active) | IC50 [2]: 34.5 µM (active) | IC50 [18]: 6.78 µM (active) | IC50 [19]: 10.4 µM (active)

CC(C)CSC1=NSC2=NC(=O)/C(=C\c3ccccc3)C(=N)N12
IC50 [2]: 51.8 µM (active)

CC[N+]1(CC)CC2CCC(C)(C1)C2(C)C (stereo not given)
IC50 [20]: 2.28 µM (active) | IC50 [21]: 3.3 µM (active) | IC50 [22]: 12.1 µM (active)

CC(C)c1ccc(O)c(NC(=S)NC(=O)c2cccnc2)c1
EC50 [6]: > 40 µM (inactive) | IC50 [7]: 23.2 µM (not active) | IC50 [23]: > 50 µM (inactive)

C=C1C(=O)OC2CC3(C)OC3CCC(C)=CC(OC(C)=O)C12 (stereo not given)
CC50 [24]: 23.8 µM (active)

O=C(N/N=C/c1cc(Br)cc(Br)c1O)c1ccncc1
EC50 [10]: 0.807 µM (active) | EC50 [25]: 24.8 µM (active) | IC50 [4]: 5.03 µM (active) | IC50 [5]: 8.52 µM (active) | EC50 [26]: > 350 µM (not active) | EC50 [15]: 2.5 µM (active) | AC50 [27]: 2.64 µM (active)

OCCN1C[C@H](O)[C@@H](O)[C@H](O)[C@H]1CO [MIGLITOL]
EC50 [6]: > 40 µM (inactive) | IC50 [7]: > 40 µM (not active)
